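Exposure lasted 48 hours, with cells grown in 96-well plates and compounds tested at five concentrations. The concentration for 50% growth inhibition is given as GI50.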 Activity calls are given as the source filed them. No stated cut-off is given here; in the data, active = GI50 up to about 1.1 µM and inactive = higher.
How the values were obtained:
Assay in all cases: NCI tumour cell line growth inhibition, 48 h
CCRF-CEM = tested on: CCRF-CEM
HCT-15 = tested on: HCT-15
SR = tested on: SR
Malme-3M = tested on: Malme-3M
OVCAR-3 = tested on: OVCAR-3
SF-268 = tested on: SF-268
SK-MEL-2 = tested on: SK-MEL-2
HCT-116 = tested on: HCT-116
SF-295 = tested on: SF-295
M19-MEL = tested on: M19-MEL
NCI-H23 = tested on: NCI-H23
MOLT-4 = tested on: MOLT-4
LOX IMVI = tested on: LOX IMVI
SNB-75 = tested on: SNB-75
M14 = tested on: M14
RXF 393 = tested on: RXF 393
NCI-H460 = tested on: NCI-H460
SNB-19 = tested on: SNB-19

## CCOC(=O)/C(Br)=C1/OC(=O)c2ccccc2-c2ccccc21.CCOC(=O)/C(Br)=C1\OC(=O)c2ccccc2-c2ccccc21
CCRF-CEM
  GI50: 10.9 µM (inactive)
HCT-15
  GI50: 19.6 µM
SR
  GI50: 16 µM (inactive)
Malme-3M
  GI50: 17.7 µM (inactive)
OVCAR-3
  GI50: 18.2 µM (inactive)
SF-268
  GI50: 30.7 µM (inactive)
SK-MEL-2
  GI50: 18.5 µM (inactive)
HCT-116
  GI50: 17.7 µM (inactive)
SF-295
  GI50: 21.9 µM (inactive)
M19-MEL
  GI50: 15.8 µM (inactive)
NCI-H23
  GI50: 21 µM (inactive)
MOLT-4
  GI50: 14.7 µM (inactive)
LOX IMVI
  GI50: 16.5 µM (inactive)
SNB-75
  GI50: 25.2 µM (inactive)
M14
  GI50: 17 µM (inactive)

## CC(C)/C=C1\CCC(CN2CCOCC2)C1=O (configuration not stated)
CCRF-CEM
  GI50: 2.65 µM (inactive)
HCT-15
  GI50: 5.85 µM
SR
  GI50: 3.75 µM (inactive)
Malme-3M
  GI50: 15.7 µM (inactive)
OVCAR-3
  GI50: 18.2 µM (inactive)
SF-268
  GI50: 22.9 µM (inactive)
SK-MEL-2
  GI50: 17.7 µM (inactive)
HCT-116
  GI50: 5.35 µM (inactive)
SF-295
  GI50: 45 µM (inactive)
M19-MEL
  GI50: 23.4 µM (inactive)
RXF 393
  GI50: 4.94 µM (inactive)
NCI-H23
  GI50: 17.4 µM (inactive)
NCI-H460
  GI50: 28.1 µM (inactive)
MOLT-4
  GI50: 2.99 µM (inactive)
LOX IMVI
  GI50: 24.4 µM (inactive)
SNB-19
  GI50: > 100 µM (inactive)
M14
  GI50: 11.9 µM (inactive)

## COC1OC(C)C(OC(=O)C(C)(C)C)C(OS(=O)(=O)c2ccc(C)cc2)C1OS(=O)(=O)c1ccc(C)cc1 (configuration not stated)
CCRF-CEM
  GI50: > 100 µM (inactive)
HCT-15
  GI50: > 100 µM
SR
  GI50: 15.4 µM (inactive)
Malme-3M
  GI50: > 100 µM (inactive)
OVCAR-3
  GI50: > 100 µM (inactive)
SF-268
  GI50: > 100 µM (inactive)
SK-MEL-2
  GI50: > 100 µM (inactive)
HCT-116
  GI50: > 100 µM (inactive)
SF-295
  GI50: > 100 µM (inactive)
M19-MEL
  GI50: > 100 µM (inactive)
RXF 393
  GI50: > 100 µM (inactive)
NCI-H23
  GI50: > 100 µM (inactive)
NCI-H460
  GI50: > 100 µM (inactive)
MOLT-4
  GI50: > 100 µM (inactive)
SNB-75
  GI50: 77.8 µM (inactive)
SNB-19
  GI50: > 100 µM (inactive)
M14
  GI50: > 100 µM (inactive)

## CCCCNC(=NC#N)NCCCC
HCT-15
  GI50: 62.4 µM
SR
  GI50: 78.7 µM (inactive)
Malme-3M
  GI50: > 100 µM (inactive)
OVCAR-3
  GI50: > 100 µM (inactive)
SF-268
  GI50: > 100 µM (inactive)
SK-MEL-2
  GI50: > 100 µM (inactive)
HCT-116
  GI50: > 100 µM (inactive)
SF-295
  GI50: > 100 µM (inactive)
M19-MEL
  GI50: 83.4 µM (inactive)
RXF 393
  GI50: 34.5 µM (inactive)
NCI-H23
  GI50: > 100 µM (inactive)
NCI-H460
  GI50: > 100 µM (inactive)
MOLT-4
  GI50: > 100 µM (inactive)
SNB-75
  GI50: > 100 µM (inactive)
SNB-19
  GI50: > 100 µM (inactive)
M14
  GI50: > 100 µM (inactive)

## COc1ccc2c(c1OC)C(=O)C2
CCRF-CEM
  GI50: > 100 µM (inactive)
HCT-15
  GI50: > 100 µM
SR
  GI50: > 100 µM (inactive)
Malme-3M
  GI50: > 100 µM (inactive)
SF-268
  GI50: > 100 µM (inactive)
SK-MEL-2
  GI50: > 100 µM (inactive)
HCT-116
  GI50: > 100 µM (inactive)
SF-295
  GI50: > 100 µM (inactive)
M19-MEL
  GI50: > 100 µM (inactive)
RXF 393
  GI50: > 100 µM (inactive)
NCI-H23
  GI50: > 100 µM (inactive)
NCI-H460
  GI50: > 100 µM (inactive)
MOLT-4
  GI50: > 100 µM (inactive)
LOX IMVI
  GI50: > 100 µM (inactive)
SNB-75
  GI50: > 100 µM (inactive)
SNB-19
  GI50: > 100 µM (inactive)
M14
  GI50: > 100 µM (inactive)

## N#CCCN(c1ccc(/C=N/c2ccccc2)cc1)S(=O)(=O)c1ccccc1
CCRF-CEM
  GI50: > 100 µM (inactive)
SR
  GI50: > 100 µM (inactive)
Malme-3M
  GI50: 41.4 µM (inactive)
OVCAR-3
  GI50: > 100 µM (inactive)
SF-268
  GI50: > 100 µM (inactive)
SK-MEL-2
  GI50: > 100 µM (inactive)
HCT-116
  GI50: > 100 µM (inactive)
SF-295
  GI50: 12.4 µM (inactive)
M19-MEL
  GI50: > 100 µM (inactive)
NCI-H23
  GI50: > 100 µM (inactive)
MOLT-4
  GI50: > 100 µM (inactive)
SNB-75
  GI50: > 100 µM (inactive)
SNB-19
  GI50: > 100 µM (inactive)
M14
  GI50: 8.93 µM (inactive)

## CC(=O)N/N=C1\CC(C)(C)C2CCC1C2 (configuration not stated)
CCRF-CEM
  GI50: > 100 µM (inactive)
HCT-15
  GI50: > 100 µM
Malme-3M
  GI50: > 100 µM (inactive)
OVCAR-3
  GI50: > 100 µM (inactive)
SF-268
  GI50: > 100 µM (inactive)
SK-MEL-2
  GI50: > 100 µM (inactive)
HCT-116
  GI50: > 100 µM (inactive)
SF-295
  GI50: > 100 µM (inactive)
M19-MEL
  GI50: > 100 µM (inactive)
RXF 393
  GI50: > 100 µM (inactive)
NCI-H23
  GI50: > 100 µM (inactive)
NCI-H460
  GI50: > 100 µM (inactive)
MOLT-4
  GI50: > 100 µM (inactive)
LOX IMVI
  GI50: > 100 µM (inactive)
SNB-75
  GI50: > 100 µM (inactive)
SNB-19
  GI50: > 100 µM (inactive)
M14
  GI50: > 100 µM (inactive)

## CCOC(=O)/N=C(\N)SCc1ccccc1
CCRF-CEM
  GI50: 24.7 µM (inactive)
HCT-15
  GI50: > 100 µM
SR
  GI50: 31.6 µM (inactive)
Malme-3M
  GI50: > 100 µM (inactive)
SF-268
  GI50: > 100 µM (inactive)
SK-MEL-2
  GI50: 44.6 µM (inactive)
HCT-116
  GI50: > 100 µM (inactive)
SF-295
  GI50: > 100 µM (inactive)
M19-MEL
  GI50: > 100 µM (inactive)
RXF 393
  GI50: > 100 µM (inactive)
NCI-H23
  GI50: > 100 µM (inactive)
NCI-H460
  GI50: > 100 µM (inactive)
MOLT-4
  GI50: 26.5 µM (inactive)
LOX IMVI
  GI50: 43.9 µM (inactive)
SNB-75
  GI50: > 100 µM (inactive)
SNB-19
  GI50: > 100 µM (inactive)
M14
  GI50: > 100 µM (inactive)

## O=C1C(Cl)C(c2ccc(O)cc2)N1n1cnc2ccccc2c1=O (configuration not stated)
CCRF-CEM
  GI50: 26.3 µM (inactive)
HCT-15
  GI50: 27.4 µM
SR
  GI50: 18.8 µM (inactive)
Malme-3M
  GI50: 37.2 µM (inactive)
OVCAR-3
  GI50: 32 µM (inactive)
SF-268
  GI50: 45.6 µM (inactive)
SK-MEL-2
  GI50: 26.9 µM (inactive)
HCT-116
  GI50: 17.1 µM (inactive)
SF-295
  GI50: 98.4 µM (inactive)
M19-MEL
  GI50: 22.2 µM (inactive)
RXF 393
  GI50: 19 µM (inactive)
NCI-H23
  GI50: 31 µM (inactive)
NCI-H460
  GI50: 33.1 µM (inactive)
MOLT-4
  GI50: 25.6 µM (inactive)
LOX IMVI
  GI50: 21 µM (inactive)
SNB-75
  GI50: 49 µM (inactive)
SNB-19
  GI50: > 100 µM (inactive)
M14
  GI50: 30.5 µM (inactive)

## CC(=O)OC1COC(N2C(=O)C(=O)c3c(C)cc(Cl)nc32)C(OC(C)=O)C1OC(C)=O (configuration not stated)
CCRF-CEM
  GI50: > 100 µM (inactive)
HCT-15
  GI50: > 100 µM
SR
  GI50: 83.6 µM (inactive)
Malme-3M
  GI50: > 100 µM (inactive)
OVCAR-3
  GI50: > 100 µM (inactive)
SF-268
  GI50: > 100 µM (inactive)
SK-MEL-2
  GI50: > 100 µM (inactive)
HCT-116
  GI50: > 100 µM (inactive)
SF-295
  GI50: > 100 µM (inactive)
M19-MEL
  GI50: > 100 µM (inactive)
RXF 393
  GI50: > 100 µM (inactive)
NCI-H23
  GI50: > 100 µM (inactive)
NCI-H460
  GI50: > 100 µM (inactive)
MOLT-4
  GI50: > 100 µM (inactive)
LOX IMVI
  GI50: > 100 µM (inactive)
SNB-75
  GI50: > 100 µM (inactive)
SNB-19
  GI50: > 100 µM (inactive)
M14
  GI50: > 100 µM (inactive)

## Cc1nn(-c2nc3ccccc3s2)c2c1C(=O)c1ccccc1-2
HCT-15
  GI50: > 100 µM
SR
  GI50: > 100 µM (inactive)
Malme-3M
  GI50: > 100 µM (inactive)
OVCAR-3
  GI50: > 100 µM (inactive)
SF-268
  GI50: > 100 µM (inactive)
SK-MEL-2
  GI50: > 100 µM (inactive)
HCT-116
  GI50: > 100 µM (inactive)
SF-295
  GI50: > 100 µM (inactive)
M19-MEL
  GI50: > 100 µM (inactive)
RXF 393
  GI50: 62.5 µM (inactive)
NCI-H23
  GI50: > 100 µM (inactive)
NCI-H460
  GI50: > 100 µM (inactive)
LOX IMVI
  GI50: > 100 µM (inactive)
SNB-75
  GI50: > 100 µM (inactive)
SNB-19
  GI50: > 100 µM (inactive)
M14
  GI50: > 100 µM (inactive)

## COc1ccc(/C=C/c2cc(OC)c(O[Si](C)(C)C(C)(C)C)c(OC)c2)cc1
CCRF-CEM
  GI50: 58.7 µM (inactive)
HCT-15
  GI50: > 100 µM
SR
  GI50: > 10 µM (inactive)
Malme-3M
  GI50: 24.2 µM (inactive)
OVCAR-3
  GI50: > 100 µM (inactive)
SF-268
  GI50: > 100 µM (inactive)
SK-MEL-2
  GI50: > 100 µM (inactive)
HCT-116
  GI50: 55.6 µM (inactive)
M19-MEL
  GI50: 46.5 µM (inactive)
NCI-H23
  GI50: 17.2 µM (inactive)
NCI-H460
  GI50: 42.2 µM (inactive)
MOLT-4
  GI50: 63.4 µM (inactive)
SNB-75
  GI50: 84.7 µM (inactive)
SNB-19
  GI50: > 100 µM (inactive)
M14
  GI50: > 100 µM (inactive)

Source: ChEMBL document CHEMBL1201862, “PubChem BioAssay data set” (2004)
